Data published in ChEMBL document CHEMBL5385860, “Antiproliferative, antiangiogenic and apoptotic effect of new hybrids of quinazoline-4(3H)-ones and sulfachloropyridazine” (Eur J Med Chem, 2023).

Legend:
[1] = system: Hs-578T; assay: Cytotoxicity against human Hs-578T cells assessed as growth inhibition at 10 uM relative to control; format: functional; conditions: read-out: GI
[2] = system: SNB-75; assay: Cytotoxicity against human SNB-75 cells assessed as growth inhibition at 10 uM relative to control; format: functional; conditions: read-out: GI
[3] = system: A498; assay: Cytotoxicity against human A498 cells assessed as growth inhibition at 10 uM relative to control; format: functional; conditions: read-out: GI
[4] = system: NCI-H522; assay: Cytotoxicity against human NCI-H522 cells assessed as growth inhibition at 10 uM relative to control; format: functional; conditions: read-out: GI
[5] = system: MDA-MB-468; assay: Cytotoxicity against human MDA-MB-468 cells assessed as growth inhibition at 10 uM relative to control; format: functional; conditions: read-out: GI
[6] = system: UACC-62; assay: Cytotoxicity against human UACC-62 cells assessed as growth inhibition at 10 uM relative to control; format: functional; conditions: read-out: GI
[7] = system: HOP-92; assay: Cytotoxicity against human HOP-92 cells assessed as growth inhibition at 10 uM relative to control; format: functional; conditions: read-out: GI
[8] = system: EKVX; assay: Cytotoxicity against human EKVX cells assessed as growth inhibition at 10 uM relative to control; format: functional; conditions: read-out: GI
[9] = system: UO-31; assay: Cytotoxicity against human UO-31 cells assessed as growth inhibition at 10 uM relative to control; format: functional; conditions: read-out: GI
[10] = system: BT-549; assay: Cytotoxicity against human BT-549 cells assessed as growth inhibition at 10 uM relative to control; format: functional; conditions: read-out: GI
[11] = system: CAKI-1; assay: Cytotoxicity against human CAKI-1 cells assessed as growth inhibition at 10 uM relative to control; format: functional; conditions: read-out: GI
[12] = system: 786-0; assay: Cytotoxicity against human 786-0 cells assessed as growth inhibition at 10 uM relative to control; format: functional; conditions: read-out: GI
[13] = system: M14; assay: cells; conditions: Homo sapiens, M14, 24 h
[14] = system: M14; assay: Cytotoxicity against human M14 cells assessed as growth inhibition at 10 uM relative to control; format: functional; conditions: read-out: GI
[15] = system: HCT-116; assay: Cytotoxicity against human HCT-116 cells assessed as growth inhibition at 10 uM relative to control; format: functional; conditions: read-out: GI
[16] = system: HCT-116; assay: cells; conditions: Homo sapiens, HCT-116, 24 h
[17] = system: SR; assay: Cytotoxicity against human SR cells assessed as growth inhibition at 10 uM relative to control; format: functional; conditions: read-out: GI
[18] = system: UACC-257; assay: Cytotoxicity against human UACC-257 cells assessed as growth inhibition at 10 uM relative to control; format: functional; conditions: read-out: GI
[19] = system: SNB-75; assay: cells; conditions: Homo sapiens, SNB-75, 24 h
[20] = system: NCI-H226; assay: Cytotoxicity against human NCI-H226 cells assessed as growth inhibition at 10 uM relative to control; format: functional; conditions: read-out: GI
[21] = system: K562; assay: Cytotoxicity against human K562 cells assessed as growth inhibition at 10 uM relative to control; format: functional; conditions: read-out: GI
[22] = system: LOX IMVI; assay: Cytotoxicity against human LOX IMVI cells assessed as growth inhibition at 10 uM relative to control; format: functional; conditions: read-out: GI
[23] = system: HOP-62; assay: Cytotoxicity against human HOP-62 cells assessed as growth inhibition at 10 uM relative to control; format: functional; conditions: read-out: GI
[24] = system: ACHN; assay: Cytotoxicity against human ACHN cells assessed as growth inhibition at 10 uM relative to control; format: functional; conditions: read-out: GI
[25] = system: MDA-MB-231; assay: Cytotoxicity against human MDA-MB-231 cells assessed as growth inhibition at 10 uM relative to control; format: functional; conditions: read-out: GI
[26] = system: MCF7; assay: Cytotoxicity against human MCF7 cells assessed as growth inhibition at 10 uM relative to control; format: functional; conditions: read-out: GI
[27] = system: Malme-3M; assay: Cytotoxicity against human Malme-3M cells assessed as growth inhibition at 10 uM relative to control; format: functional; conditions: read-out: GI
[28] = system: T47D; assay: Cytotoxicity against human T47D cells assessed as growth inhibition at 10 uM relative to control; format: functional; conditions: read-out: GI

O=C(CSc1nc2ccccc2c(=O)n1-c1ccc(S(=O)(=O)Nc2ccc(Cl)nn2)cc1)NC1CCCCC1
inhibition of growth at 10 µM [1]: 10%
inhibition of growth at 10 µM [2]: 16%
inhibition of growth at 10 µM [3]: 11%
inhibition of growth at 10 µM [4]: 11%
inhibition of growth at 10 µM [5]: 10%
inhibition of growth at 10 µM [6]: 10%
inhibition of growth at 10 µM [7]: 11%

Cn1c(SCC(=O)Nc2ccc(S(=O)(=O)Nc3ccc(Cl)nn3)cc2)nc2ccccc2c1=O
inhibition of growth at 10 µM [8]: 10%
inhibition of growth at 10 µM [9]: 12%
inhibition of growth at 10 µM [3]: 19%
inhibition of growth at 10 µM [10]: 17%
inhibition of growth at 10 µM [7]: 17%

Cc1ccc2[nH]c(=S)n(-c3ccc(S(=O)(=O)Nc4ccc(Cl)nn4)cc3)c(=O)c2c1
inhibition of growth at 10 µM [9]: 15%
inhibition of growth at 10 µM [11]: 10%
inhibition of growth at 10 µM [12]: 39%
inhibition of growth at 10 µM [10]: 17%
IC50 [13]: 12.8 µM
inhibition of growth at 10 µM [14]: 100%
inhibition of growth at 10 µM [15]: 60%
IC50 [16]: 28 µM

CCn1c(SCC(=O)Nc2ccc(S(=O)(=O)Nc3ccc(Cl)nn3)cc2)nc2ccccc2c1=O
inhibition of growth at 10 µM [9]: 12%
inhibition of growth at 10 µM [17]: 12%
inhibition of growth at 10 µM [3]: 10%

O=c1c2ccccc2[nH]c(=S)n1-c1ccc(S(=O)(=O)Nc2ccc(Cl)nn2)cc1
inhibition of growth at 10 µM [9]: 17%
inhibition of growth at 10 µM [11]: 10%
inhibition of growth at 10 µM [4]: 11%

O=C(CSc1nc2ccccc2c(=O)n1-c1ccccc1)Nc1ccc(S(=O)(=O)Nc2ccc(Cl)nn2)cc1
inhibition of growth at 10 µM [18]: 12%
inhibition of growth at 10 µM [9]: 21%
inhibition of growth at 10 µM [2]: 27%
IC50 [19]: 47.5 µM
inhibition of growth at 10 µM [7]: 11%
inhibition of growth at 10 µM [20]: 10%

CCCCNC(=O)CSc1nc2ccccc2c(=O)n1-c1ccc(S(=O)(=O)Nc2ccc(Cl)nn2)cc1
inhibition of growth at 10 µM [9]: 12%
inhibition of growth at 10 µM [3]: 25%

O=C(CSc1nc2ccccc2c(=O)n1-c1ccc(S(=O)(=O)Nc2ccc(Cl)nn2)cc1)Nc1ccc(S(=O)(=O)Nc2ccc(Cl)nn2)cc1
inhibition of growth at 10 µM [9]: 12%
inhibition of growth at 10 µM [17]: 13%
inhibition of growth at 10 µM [21]: 12%
inhibition of growth at 10 µM [22]: 10%

O=C(CSc1nc2ccccc2c(=O)n1Cc1ccccc1)Nc1ccc(S(=O)(=O)Nc2ccc(Cl)nn2)cc1
inhibition of growth at 10 µM [23]: 11%
inhibition of growth at 10 µM [9]: 21%
inhibition of growth at 10 µM [17]: 10%
inhibition of growth at 10 µM [11]: 13%
inhibition of growth at 10 µM [24]: 10%
inhibition of growth at 10 µM [25]: 13%
inhibition of growth at 10 µM [26]: 13%
inhibition of growth at 10 µM [20]: 12%

CNC(=O)CSc1nc2ccccc2c(=O)n1-c1ccc(S(=O)(=O)Nc2ccc(Cl)nn2)cc1
inhibition of growth at 10 µM [22]: 24%

O=C(CSc1nc2ccccc2c(=O)n1C1CCCCC1)Nc1ccc(S(=O)(=O)Nc2ccc(Cl)nn2)cc1
inhibition of growth at 10 µM [9]: 21%
inhibition of growth at 10 µM [2]: 16%
inhibition of growth at 10 µM [11]: 14%
inhibition of growth at 10 µM [27]: 10%
inhibition of growth at 10 µM [28]: 12%
inhibition of growth at 10 µM [7]: 25%
